# Reference: PMC8584424, “Synthesis of Novel 2-Thiouracil-5-Sulfonamide Derivatives as Potent Inducers of Cell Cycle Arrest and CDK2A Inhibition Supported by Molecular Docking” (International Journal of Molecular Sciences, 2021)
# Tests used:
# WI38 normal cells = assay: In vitro cytotoxicity assessment (MTT), normal cells; assay type: cell-based; conditions: WI-38; normal human cell line WI38, MTT
# Procedure: Cells were seeded in 96 well plates at a density of 2 × 10^4 and incubated to allow the attachment for 24 h. […] 0.1% DMSO was used as a negative control. Afterward, cells were washed using PBS and the viability of cells was evaluated utilizing in vitro toxicology assay kit, MTT Based (Stock No. TOX-1, Sigma-Aldrich, Saint Louis, Missouri, USA), per the manufacturer’s instructions. The plates were read at 570 nm. IC50 was calculated using a sigmoidal dose-response curve (GraphPad Prism version 5 for Windows (GraphPad Inc., USA)). Data are presented as the mean of the three individual experiments. The degree of selectivity of the active target compounds relative to WI38 normal cell lines is expressed as previously described. Selectivity index (SI) = IC50 of a pure compound in a normal cell line/IC50 of the same pure compound in a cancerous cell line.
# p21 = assay: Western blot analysis for p21 in MCF-7 cells; assay type: cell-based, human; conditions: 6e at IC50 (1.67 μM), 48 h, relative to actin
# Procedure: (§1) Whole-cell protein lysates were prepared according to a standard protocol using RIPA buffer (Cell Signaling, Danvers, MA, USA). Total protein concentrations were determined in the supernatant using the Bradford method. Equal amounts (20 µg) of protein samples were mixed and boiled with SDS Loading buffer for 10 min, allowed to cool on ice and then loaded into SDS-polyacrylamide gel and separated by Cleaver electrophoresis unit (Cleaver, UK), transferred onto polyvinylidene fluoride (PVDF) membranes (BioRad, USA) for 30 min using a Semi-dry Electroblotter (Biorad, USA) at 2.5 A and 25 V for 30 min. Membranes were blocked with 5% non-fat dry milk in TBS-T and incubated overnight with the primary antibody: anti-p21, anti-p27 antibody, or anti-β-actin antibody (1:1000; Cell Signaling Technology, Inc., Danvers, MA, USA), then incubated with secondary HRP-linked antibody (1:5000). Development was done using Pierce ECL2 chemiluminescent and chemifluorescent substrate (Perkin Elmer, Waltham, MA, USA). The chemiluminescent signals were captured using a CCD camera-based imager (Chemi Doc imager, Biorad, USA), and the bands’ intensities were then measured relative to actin by ImageLab (Biorad).
# [1] = test system: HepG2 (liver) cancer cells; assay: In vitro cytotoxicity assessment (MTT), HepG2; assay type: cell-based, human; conditions: for IC50: Homo sapiens, HepG2, 48 h, MTT, mean of three experiments ± SD, NA: not active
# Text: (§2) Four cancer cell lines were used in this study viz ovarian (A-2780), colon (HT-29), breast (MCF-7), and liver (HepG2) cancer cells. They were provided by the National Institute of Cancer, Cairo University (Cairo, Egypt). The selection of those cancer cells was encouraged by the stated anticancer activity of a number 5-Fluorouracil hybrids against the mentioned cancer cells and based on the reported cytotoxic activity of a large range of bioactive cores containing sulfonamide moiety.
# (§3) Cells were seeded in 96 well plates at a density of 2 × 10^4 and incubated to allow the attachment for 24 h. Then the cells were treated at different concentrations (2.5–10 μM) with 5-FU as a positive control or the synthesized compounds for 48h. 0.1% DMSO was used as a negative control. Afterward, cells were washed using PBS and the viability of cells was evaluated utilizing in vitro toxicology assay kit, MTT Based (Stock No. TOX-1, Sigma-Aldrich, Saint Louis, Missouri, USA), per the manufacturer’s instructions. The plates were read at 570 nm. IC50 was calculated using a sigmoidal dose-response curve (GraphPad Prism version 5 for Windows (GraphPad Inc., USA)). Data are presented as the mean of the three individual experiments. The degree of selectivity of the active target compounds relative to WI38 normal cell lines is expressed as previously described. Selectivity index (SI) = IC50 of a pure compound in a normal cell line/IC50 of the same pure compound in a cancerous cell line.
# HT-29 cells [2] = assay: Annexin V-FITC/PI apoptosis assay, HT-29; assay type: cell-based, human; conditions: 6e at its IC50, 48 h
# Procedure: (§4) For the apoptosis assay, the BioVision annexin V-FITC apoptosis detection kit (Cat No.: K101; BioVision, Inc., Milpitas, CA, USA) was used, per the manufacturer’s instructions. […] The cells were resuspended in 500 μL of Annexin V–binding buffer, followed by the addition of 5μL of Annexin V–FITC, then incubated in the dark for 10 min at room temperature. Analysis was performed using a FACS Calibur flow cytometer (BD Biosciences, San Jose, CA, USA), using […] software (Becton Dickinson Immunocytometry Systems, San Jose, CA, USA).
# [3] = test system: A-2780 (ovarian) cancer cells; assay: In vitro cytotoxicity assessment (MTT), A-2780; assay type: cell-based, human; conditions: for IC50: Homo sapiens, A2780, 48 h, MTT, mean of three experiments ± SD, NA: not active
# Text: as §2, §3
# A-2780 cells [4] = assay: Cell cycle analysis (PI flow cytometry), A-2780; assay type: cell-based, human; conditions: IC50 of 6e, 48 h
# Procedure: (§5) To evaluate cancer cells distribution through different cell cycle stages, the DNA content of propidium iodide-stained nuclei was assessed by flow cytometry as depicted earlier. […] Then, the cells were washed twice with ice-cold phosphate-buffered saline (PBS) and gathered by centrifugation. The cell pellets were mixed with 75% ethanol (−20 °C). Afterward, cells were stained with the propidium iodide flow cytometry kit (ab139418, Abcam, Cambridge, MA, USA), according to the manufacturer’s instructions. Cell cycle distribution was established by FACS Calibur flow cytometer (BD Biosciences, San Jose, CA, USA). Cell cycle distribution was measured using […] software (Becton Dickinson Immunocytometry Systems, San Jose, CA, USA).
# HT-29 cells [5] = assay: Cell cycle analysis (PI flow cytometry), HT-29; assay type: cell-based, human; conditions: IC50 of 6e, 48 h
# Procedure: as §5
# A-2780 cells [6] = assay: Annexin V-FITC/PI apoptosis assay, A-2780; assay type: cell-based, human; conditions: 6e at its IC50, 48 h
# Procedure: as §4
# CDK2/CyclinA2 = molecular target: T1, CDK2/CyclinA2 (Homo sapiens, UniProt P24941); assay: In vitro inhibitory screening of CDK2 (CDK2 Assay kit, Kinase-Glo MAX); assay type: biochemical; conditions: CDK2/CyclinA2, 30 °C 45 min; mean of three experiments ± SD; read-out: CDK2 Protein Kinase (IC50 in µM)
# T1 construct: purchased #79599
# Procedure: To measure CDK2/CyclinA2 activity, the CDK2 Assay kit #79599 was used for screening and profiling applications, together with Kinase-Glo® MAX (Promega#V6071) as a detection reagent. […] Briefly, 25 μL of the master mixture containing 6 μL Kinase assay buffer + 1 μL ATP + 5 μL CDK substrate peptide + 13 μL distilled water were added to each well. Later, 5 µL of inhibitor buffer only or diluted compound were added to the blank or test inhibitor wells, respectively. Then, 20μL of Kinase assay buffer was added to blank wells. The reaction was started by the addition of 20 μL of CDK2/CyclinA2 enzyme to the wells of the test inhibitor. The final volume was 50 µL in all of the reactions. Incubation was at 30 °C for 45 min for all the enzymatic reactions. Finally, to each well, 50 μL of Kinase-Glo MAX reagent was added. The plate was incubated for 15 min at room temperature then, the luminescence signal was measured using a Bio Tek Synergy 2 microplate reader. Experiments were performed in triplicates.
# MCF-7 cells [7] = assay: Cell cycle analysis (PI flow cytometry), MCF-7; assay type: cell-based, human; conditions: IC50 of 6e, 48 h
# Procedure: as §5
# HepG2 cells [8] = assay: Cell cycle analysis (PI flow cytometry), HepG2; assay type: cell-based, human; conditions: IC50 of 6e, 48 h
# Procedure: as §5
# [9] = test system: MCF-7 (breast) cancer cells; assay: In vitro cytotoxicity assessment (MTT), MCF-7; assay type: cell-based, human; conditions: for IC50: Homo sapiens, MCF7, 48 h, MTT, mean of three experiments ± SD, NA: not active
# Text: as §2, §3
# [10] = test system: HT-29 (colon) cancer cells; assay: In vitro cytotoxicity assessment (MTT), HT-29; assay type: cell-based, human; conditions: for IC50: Homo sapiens, HT-29, 48 h, MTT, mean of three experiments ± SD, NA: not active
# Text: as §2, §3
# p27 = assay: Western blot analysis for p27 in MCF-7 cells; assay type: cell-based, human; conditions: 6e at IC50 (1.67 μM), 48 h, relative to actin
# Procedure: as §1
# HepG2 cells [11] = assay: Annexin V-FITC/PI apoptosis assay, HepG2; assay type: cell-based, human; conditions: 6e at its IC50, 48 h
# Procedure: as §4
# MCF-7 cells [12] = assay: Annexin V-FITC/PI apoptosis assay, MCF-7; assay type: cell-based, human; conditions: 6e at its IC50, 48 h
# Procedure: as §4
# [13] = test system: A-2780, HT-29, MCF-7, and HepG2 cancer cell lines; assay: Cytotoxic screening, statements for the whole panel of four cancer cell lines; assay type: cell-based, human; conditions: A-2780, HT-29, MCF-7, HepG2
# Text: as §2, §3
smiles,measurement,setting,value
"Cc1[nH]c(=S)[nH]c(=O)c1S(=O)(=O)Nc1cccc(Cl)c1Cl [Compound 6e, N-(2,3-Dichlorophenyl)-6-Methyl-4-Oxo-2-Thioxo-1,2,3,4-Tetrahydropyrimidine-5-Sulfonamide]",IC50,WI38 normal cells,60.2 ± 1.77 µM
same,"protein expression level of p21, increase compared to control",p21,about 2.6 fold
same,melting point,,326 to 328 °C
same,IC50,[1],2.02 ± 0.85 µM
same,SI (selectivity index) HepG2,[1]; IC50 in WI38 normal cells / IC50 in HepG2,29.80
same,% Early Apoptosis,HT-29 cells [2],1.61%
same,% Late Apoptosis,HT-29 cells [2],26.24%
same,% Necrosis,HT-29 cells [2],14.51%
same,% Total,HT-29 cells [2],42.36%
same,IC50,[3],2.52 ± 0.47 µM
same,SI (selectivity index) A-2780,[3]; IC50 in WI38 normal cells / IC50 in A-2780,23.91
same,phase of cell growth arrest,A-2780 cells [4],G1/S phase
same,phase of cell growth arrest,HT-29 cells [5],S phase
same,% Early Apoptosis,A-2780 cells [6],2.38%
same,% Late Apoptosis,A-2780 cells [6],22.02%
same,% Necrosis,A-2780 cells [6],9.41%
same,% Total,A-2780 cells [6],33.81%
same,IC50,CDK2/CyclinA2,0.407 ± 0.021 µM
same,phase of cell growth arrest,MCF-7 cells [7],S phase
same,phase of cell growth arrest,HepG2 cells [8],G2/M phase
same,IC50,[9],1.67 ± 0.31 µM
same,SI (selectivity index) MCF-7,[9]; IC50 in WI38 normal cells / IC50 in MCF-7,36.05
same,IC50,[10],1.75 ± 0.4 µM
same,SI (selectivity index) HT-29,[10]; IC50 in WI38 normal cells / IC50 in HT-29,34.40
same,"protein expression level of p27, increase compared to control",p27,~2.2 fold
same,% Early Apoptosis,HepG2 cells [11],0.84%
same,% Late Apoptosis,HepG2 cells [11],18.97%
same,% Necrosis,HepG2 cells [11],8.81%
same,% Total,HepG2 cells [11],28.62%
same,% Early Apoptosis,MCF-7 cells [12],3.82%
same,% Late Apoptosis,MCF-7 cells [12],23.71%
same,% Necrosis,MCF-7 cells [12],11.75%
same,% Total,MCF-7 cells [12],39.28%
"Cc1[nH]c(=S)[nH]c(=O)c1S(=O)(=O)C1Cc2ccccc2C1=O (stereo not drawn) [Compound 5, 6-Methyl-5-(1-Oxo-2,3-Dihydro-1H-Inden-2-Ylsulfonyl)-2-Thioxo-2,3-Dihydropyrimidin-4(1H)-One]",melting point,,348 to 350 °C
same,"anticancer activity against the four cancer cell lines, in words",[13],low or no anticancer activity
same,IC50,[9],17.3 ± 2.35 µM
same,IC50,[10],11.7 ± 1.96 µM
"Cc1[nH]c(=S)[nH]c(=O)c1S(=O)(=O)C1C(=O)CC(C)(C)CC1=O [Compound 4, 5,5-Dimethyl-2-[(6-Methyl-4-Oxo-2-Thioxo-1,2,3,4-Tetrahydropyrimidin-5-Yl)sulfonyl]cyclohexane-1,3-Dione]",melting point,,340 to 342 °C
same,"anticancer activity against the four cancer cell lines, in words",[13],low or no anticancer activity
same,IC50,[9],10.8 ± 1.6 µM
same,IC50,[10],14.2 ± 2.85 µM
"Cc1[nH]c(=S)[nH]c(=O)c1S(=O)(=O)Cl [Compound 2, 6-Methyl-4-Oxo-2-Thioxo-1,2,3,4-Tetrahydropyrimidine-5-Sulfonyl Chloride]",melting point,,324 to 326 °C
same,IC50,[1],17 ± 0.93 µM
same,IC50,[3],21.4 ± 2.51 µM
same,"anticancer activity against the four cancer cell lines, in words",[13],low anticancer activity
same,IC50,[9],16.5 ± 1.4 µM
same,IC50,[10],18 ± 1.04 µM
"Cc1[nH]c(=S)[nH]c(=O)c1S(=O)(=O)C1C(=O)NC(=O)NC1=O [Compound 3, 5-[(6-Methyl-4-Oxo-2-Thioxo-1,2,3,4-Tetrahydropyrimidin-5-Yl)sulfonyl]pyrimidine-2,4,6(1H,3H,5H)-Trione]",melting point,,344 to 346 °C
same,"anticancer activity against the four cancer cell lines, in words",[13],low or no anticancer activity
same,IC50,[9],14.9 ± 2.89 µM
same,IC50,[10],13 ± 2 µM
